Patent US8993574B2, “Pyrrole antifungal agents” (F2G Ltd, priority 2008, dated 2015)
In brackets after ≈: the same amount, converted by molar mass.

Key:
Type in all cases: cell-based
[1] = tested on: Aspergillus flavus; experiment: MIC, YAG medium; details: 24 h at 35° C, MIC banded into grades; for MIC: Aspergillus flavus, 24 h, read-out: MIC grade, A. flavus
Procedure, shortened: (§1)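 Broth microdilution in YAG medium tests compound over 50-0.05 mg/L against spores at 1−2×10^4 cfu/mL. After 24 h incubation at 35° C, optical density at 485 nm gives growth, and the MIC is the lowest concentration reducing it by more than 70% relative to untreated control.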

[2] = tested on: Aspergillus fumigatus AF210; experiment: MIC, YAG medium; details: 24 h at 35° C, MIC banded into grades; for MIC: Aspergillus fumigatus, read-out: MIC grade, A. fumigatus 210
Procedure, shortened: as §1

[3] = tested on: Aspergillus fumigatus AF293; experiment: MIC, YAG medium; details: 24 h at 35° C, MIC banded into grades; for MIC: Aspergillus fumigatus, read-out: MIC grade, A. fumigatus
Procedure, shortened: as §1

[4] = tested on: Aspergillus niger; experiment: MIC, YAG medium; details: 24 h at 35° C, MIC banded into grades; for MIC: Aspergillus niger, read-out: MIC grade, A. niger
Procedure, shortened: as §1

[5] = tested on: Aspergillus terreus AT49; experiment: MIC, YAG medium; details: 24 h at 35° C, MIC banded into grades; for MIC: Aspergillus terreus, read-out: MIC grade, A. terreus 49
Procedure, shortened: as §1

[6] = tested on: Aspergillus terreus AT4; experiment: MIC, YAG medium; details: 24 h at 35° C, MIC banded into grades; for MIC: Aspergillus terreus, read-out: MIC grade, A. terreus
Procedure, shortened: as §1

[7] = tested on: Aspergillus flavus; experiment: MIC, RPMI medium; details: MIC banded into grades; for MIC: Aspergillus flavus, read-out: MIC grade, A. flavus
Procedure, shortened: (§2)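 OD485-based endpoint after 24-48 h/35° C; MIC = lowest concentration, >80% inhibition relative to drug-free. RPMI/2% glucose/0.135 M MOPS pH 7.0; 1−2×10^4 cfu/mL; range 50-0.05 mg/L.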

[8] = tested on: Aspergillus fumigatus AF210; experiment: MIC, RPMI medium; details: for MIC: Aspergillus fumigatus, AF210, MIC banded into grades, read-out: MIC grade, A. fumigatus 210
Procedure, shortened: as §2

[9] = tested on: Aspergillus fumigatus AF293; experiment: MIC, RPMI medium; details: for MIC: Aspergillus fumigatus, AF293, MIC banded into grades, read-out: MIC grade, A. fumigatus
Procedure, shortened: as §2

[10] = tested on: Aspergillus niger; experiment: MIC, RPMI medium; details: MIC banded into grades; for MIC: Aspergillus niger, read-out: MIC grade, A. niger
Procedure, shortened: as §2

[11] = tested on: Aspergillus terreus AT49; experiment: MIC, RPMI medium; details: for MIC: Aspergillus terreus, AT49, MIC banded into grades, read-out: MIC grade, A. terreus 49
Procedure, shortened: as §2

[12] = tested on: Aspergillus terreus AT4; experiment: MIC, RPMI medium; details: for MIC: Aspergillus terreus, AT4, MIC banded into grades, read-out: MIC grade, A. terreus
Procedure, shortened: as §2

SMILES	MIC [1] [µg/mL]	MIC [2] [µg/mL]	MIC [3] [µg/mL]	MIC [4] [µg/mL]	MIC [5] [µg/mL]	MIC [6] [µg/mL]	MIC [7] [µg/mL]	MIC [8] [µg/mL]	MIC [9] [µg/mL]	MIC [10] [µg/mL]	MIC [11] [µg/mL]	MIC [12] [µg/mL]	also measured
COCCn1c(C)cc(-c2ccccc2)c1C(=O)C(=O)Nc1ccc(N2CCN(c3cc(C)cc(C)n3)CC2)cc1F [Example 123, N-{4-[4-(4,6-Dimethyl-pyridin-2-yl)-piperazin-1-yl]-2-fluoro-phenyl}-2-[1-(2-methoxy-ethyl)-5-methyl-3-phenyl-1H-pyrrol-2-yl)-2-oxo-acetamide]	< 1	< 1	< 1	< 1	< 1	< 1	< 1	< 1	< 1	< 1	1 to 10 (≈ 1.76 to 17.6 µM)	< 1	–
CCCc1cc(-c2ccccc2)c(C(=O)C(=O)Nc2ccc(N3CCN(c4cc(C)cc(C)n4)CC3)cc2)n1C [Example 124, N-{4-[4-(4,6-Dimethyl-pyridin-2-yl)-piperizin-1-yl]-phenyl}-2-[1-methyl-3-phenyl-5-propyl-1H-pyrrol-2-yl)-2-oxo-acetamide]	–	–	–	–	–	–	–	–	–	–	–	–	MIC grade, A. flavus [1]: 3 (A grade of 3 represents an MIC of less than 1 mg/L); MIC grade, A. fumigatus 210 [2]: 3 (A grade of 3 represents an MIC of less than 1 mg/L); MIC grade, A. fumigatus [3]: 3 (A grade of 3 represents an MIC of less than 1 mg/L); MIC grade, A. niger [4]: 3 (A grade of 3 represents an MIC of less than 1 mg/L); MIC grade, A. terreus 49 [5]: 3 (A grade of 3 represents an MIC of less than 1 mg/L); MIC grade, A. terreus [6]: 3 (A grade of 3 represents an MIC of less than 1 mg/L); MIC grade, A. flavus [7]: 2 (A grade of 2 represents an MIC of from 1 to 10 mg/L); MIC grade, A. fumigatus 210 ([8]; MIC banded into grades): 2 (A grade of 2 represents an MIC of from 1 to 10 mg/L); MIC grade, A. fumigatus ([9]; MIC banded into grades): 2 (A grade of 2 represents an MIC of from 1 to 10 mg/L); MIC grade, A. niger [10]: 1 (a grade of 1 represents an MIC of greater than 10 mg/L); MIC grade, A. terreus 49 ([11]; MIC banded into grades): 2 (A grade of 2 represents an MIC of from 1 to 10 mg/L); MIC grade, A. terreus ([12]; MIC banded into grades): 2 (A grade of 2 represents an MIC of from 1 to 10 mg/L)
CCc1cc(-c2ccccc2)c(C(=O)C(=O)Nc2ccc(N3CCN(c4cc(C)cc(C)n4)CC3)cc2)n1COC [Example 125, N-{4-[4-(4,6-Dimethyl-pyridin-2-yl)-piperazin-1-yl]-phenyl}-2-(5-ethyl-1-methoxymethyl-3-phenyl-1H-pyrrol-2-yl)-2-oxo-acetamide]	< 1	< 1	< 1	< 1	< 1	< 1	1 to 10 (≈ 1.81 to 18.1 µM)	1 to 10 (≈ 1.81 to 18.1 µM)	1 to 10 (≈ 1.81 to 18.1 µM)	1 to 10 (≈ 1.81 to 18.1 µM)	1 to 10 (≈ 1.81 to 18.1 µM)	1 to 10 (≈ 1.81 to 18.1 µM)	–
COCCn1c(C)cc(-c2ccccc2)c1C(=O)C(=O)Nc1ccc(N2CCOCC2)c(F)c1 [Example 126, N-(3-Fluoro-4-morpholin-4-yl-phenyl)-2-[1-(2-methoxy-ethyl)-5-methyl-3-phenyl-1H-pyrrol-2-yl]-2-oxo-acetamide]	1 to 10 (≈ 2.15 to 21.5 µM)	< 1	< 1	1 to 10 (≈ 2.15 to 21.5 µM)	< 1	< 1	> 10	1 to 10 (≈ 2.15 to 21.5 µM)	1 to 10 (≈ 2.15 to 21.5 µM)	> 10	1 to 10 (≈ 2.15 to 21.5 µM)	1 to 10 (≈ 2.15 to 21.5 µM)	–
Cc1cc(-c2ccccc2)c(C(=O)C(=O)Nc2cccc3c(F)cccc23)n1C [Example 127, 2-(1,5-Dimethyl-3-phenyl-1H-pyrrol-2-yl)-N-(5-fluoro-naphthalen-1-yl)-2-oxo-acetamide]	< 1	1 to 10 (≈ 2.59 to 25.9 µM)	> 10	< 1	< 1	< 1	< 1	> 10	> 10	< 1	< 1	< 1	–
CCn1ccc2c(F)c(NC(=O)C(=O)c3c(-c4ccccc4)cc(C)n3C)ccc21 [Example 128, 2-(1,5-Dimethyl-3-phenyl-1H-pyrrol-2-yl)-N-(1-ethyl-4-fluoro-1H-indol-5-yl)-2-oxo-acetamide]	< 1	< 1	< 1	< 1	< 1	< 1	< 1	< 1	< 1	< 1	< 1	< 1	–
COCCc1cc(-c2ccccc2)c(C(=O)C(=O)Nc2ccc(N3CCN(c4cc(C)cc(C)n4)CC3)cc2)n1C [Example 129, N-{4-[4-(4,6-Dimethyl-pyridin-2-yl)-piperazin-1-yl]-phenyl}-2-[5-(2-methoxy-ethyl)-1-methyl-3-phenyl-1H-pyrrol-2-yl]-2-oxo-acetamide]	< 1	< 1	< 1	< 1	< 1	< 1	< 1	1 to 10 (≈ 1.81 to 18.1 µM)	< 1	1 to 10 (≈ 1.81 to 18.1 µM)	1 to 10 (≈ 1.81 to 18.1 µM)	1 to 10 (≈ 1.81 to 18.1 µM)	–
COCc1cc(-c2ccccc2)c(C(=O)C(=O)Nc2ccc(N3CCN(c4cc(C)cc(C)n4)CC3)cc2)n1C [Example 130, N-{4-[4-(4,6-Dimethyl-pyridin-2-yl)-piperazin-1-yl]-phenyl}-2-(5-methoxymethyl-1-methyl-3-phenyl-1H-pyrrol-2-yl)-2-oxo-acetamide]	< 1	< 1	< 1	< 1	< 1	< 1	< 1	< 1	< 1	< 1	< 1	< 1	–
COCc1cc(-c2ccccc2)c(C(=O)C(=O)Nc2ccc(N3CCN(c4cc(C)cc(C)n4)CC3)cc2)n1COC [Example 131, 2-(1,5-Bis-methoxymethyl-3-phenyl-1H-pyrrol-2-yl)-N-{4-[4-(4,6-dimethyl-pyridin-2-yl)-piperazine-1-yl]-phenyl}-2-oxo-acetamide]	1 to 10 (≈ 1.76 to 17.6 µM)	1 to 10 (≈ 1.76 to 17.6 µM)	1 to 10 (≈ 1.76 to 17.6 µM)	1 to 10 (≈ 1.76 to 17.6 µM)	1 to 10 (≈ 1.76 to 17.6 µM)	1 to 10 (≈ 1.76 to 17.6 µM)	> 10	> 10	> 10	1 to 10 (≈ 1.76 to 17.6 µM)	1 to 10 (≈ 1.76 to 17.6 µM)	1 to 10 (≈ 1.76 to 17.6 µM)	–
CCOCn1c(C)cc(-c2ccccc2)c1C(=O)C(=O)Nc1ccc(N2CCN(c3cc(C)cc(C)n3)CC2)cc1 [Example 132, N-{4-[4-(4,6-Dimethyl-pyridin-2-yl)-piperazin-1-yl]-phenyl}-2-(1-ethoxymethyl-5-methyl-3-phenyl-1H-pyrrol-2-yl)-2-oxo-acetamide]	< 1	< 1	< 1	< 1	< 1	< 1	> 10	< 1	< 1	< 1	< 1	< 1	–
CSCCn1c(C)cc(-c2ccccc2)c1C(=O)C(=O)Nc1ccc(N2CCN(c3cc(C)cc(C)n3)CC2)cc1 [Example 133, N-{4-[4-(4,6-Dimethyl-pyridin-2-yl)-piperazin-1-yl]-phenyl}-2-[5-methyl-1-(2-methylsulfanyl-ethyl)-3-phenyl-1H-pyrrol-2-yl]-2-oxo-acetamide]	1 to 10 (≈ 1.76 to 17.6 µM)	< 1	< 1	< 1	< 1	< 1	> 10	< 1	< 1	< 1	1 to 10 (≈ 1.76 to 17.6 µM)	1 to 10 (≈ 1.76 to 17.6 µM)	–
Cc1cc(C)nc(N2CCN(c3ccc(NC(=O)C(=O)c4c(-c5ccccc5)cc(C)n4CCOc4ccccc4)cc3)CC2)c1 [Example 134, N-{4-[4-(4,6-Dimethyl-pyridin-2-yl)-piperazin-1-yl]-phenyl}-2-[5-methyl-1-(2-phenoxy-ethyl)-3-phenyl-1H-pyrrol-2-yl]-2-oxo-acetamide]	1 to 10 (≈ 1.63 to 16.3 µM)	> 10	1 to 10 (≈ 1.63 to 16.3 µM)	> 10	1 to 10 (≈ 1.63 to 16.3 µM)	1 to 10 (≈ 1.63 to 16.3 µM)	> 10	> 10	> 10	> 10	> 10	> 10	–
